# Data reported in ChEMBL document CHEMBL4118172, “Design and synthesis of 2,6-disubstituted-8-amino imidazo[1,2a]pyridines, a promising privileged structure” (Bioorg Med Chem, 2018).
# Tested on: not listed separately
# Test: Cytotoxicity against human SH-SY5Y cells after 24 to 72 hrs by MTT assay
# Assay type: cell-based
row,SMILES,CC50 [µM]
1,COc1ccc(-c2cn3cc(C(=O)NCCCN4CCNCC4)cc(N)c3n2)cc1OC,> 100
2,COc1ccc(-c2cn3cc(-c4ccco4)ccc3n2)cc1OC,30
3,COc1ccc(-c2cn3cc(C(=O)NCCCN4CCOCC4)cc(N)c3n2)cc1OC,> 100
4,COc1ccc(-c2cn3cc(C(=O)NCCc4ccc(O)cc4)cc(N)c3n2)cc1OC,26.9
5,c1ccc(-c2cn3cc(-c4ccco4)ccc3n2)cc1,> 100
6,Nc1cccn2cc(-c3ccco3)nc12,> 100
7,COCCOc1ccc(N2CCN(CCNC(=O)c3cc(N)c4nc(-c5ccc(OC)c(OC)c5)cn4c3)CC2)cc1,31.8
8,Nc1cc(-c2ccco2)cn2cc(-c3ccccc3)nc12,26
9,COCCOc1ccc(N2CCN(C(=O)c3cc(N)c4nc(-c5ccc(OC)c(OC)c5)cn4c3)CC2)cc1,> 100
10,COc1ccc(-c2cn3cc(-c4ccco4)cc(N)c3n2)cc1OC,36.4
11,COc1ccc(-c2cn3cc(C#Cc4ccccc4)cc(N)c3n2)cc1OC,66.7
12,c1ccc(-c2ccc3nc(-c4ccco4)cn3c2)cc1,0.42
13,Nc1cc(-c2ccco2)cn2cc(-c3ccco3)nc12,2.27
14,c1coc(-c2cn3ccccc3n2)c1,> 100
15,c1coc(-c2ccc3nc(-c4ccco4)cn3c2)c1,3
16,Nc1cc(-c2ccccc2)cn2cc(-c3ccco3)nc12,0.5
17,COc1ccc(-c2cn3cc(C(=O)NCCCN4CCN(C)CC4)cc(N)c3n2)cc1OC,> 100
18,COc1ccc(-c2cn3cc(C(=O)NCCCN4CCCCC4)cc(N)c3n2)cc1OC,49.6
19,COc1ccc(-c2cn3cc(CCc4ccccc4)cc(N)c3n2)cc1OC,50.4

# Target: Adenosine receptor A2a (Homo sapiens, UniProt P29274)
# Sequence (P29274 whole entry): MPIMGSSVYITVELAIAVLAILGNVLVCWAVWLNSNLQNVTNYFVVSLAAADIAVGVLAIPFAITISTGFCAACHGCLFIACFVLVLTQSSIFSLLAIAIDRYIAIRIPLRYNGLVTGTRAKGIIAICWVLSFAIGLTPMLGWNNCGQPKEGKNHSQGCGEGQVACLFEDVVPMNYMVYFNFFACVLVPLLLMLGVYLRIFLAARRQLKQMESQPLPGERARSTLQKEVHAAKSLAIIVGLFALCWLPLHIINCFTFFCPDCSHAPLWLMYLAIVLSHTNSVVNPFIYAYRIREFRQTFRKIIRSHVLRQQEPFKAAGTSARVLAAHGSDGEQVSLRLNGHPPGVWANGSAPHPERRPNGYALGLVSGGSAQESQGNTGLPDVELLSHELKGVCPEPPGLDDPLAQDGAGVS
# Test: Displacement of [3H]-ZM-241385 from human adenosine A2A receptor expressed in HEK293 cell membranes after 1 hr by scintillation counting analysis
row,SMILES,Ki [µM]
1,COc1ccc(-c2cn3cc(C(=O)NCCCN4CCNCC4)cc(N)c3n2)cc1OC,> 10
2,COc1ccc(-c2cn3cc(-c4ccco4)ccc3n2)cc1OC,0.238
3,COc1ccc(-c2cn3cc(C(=O)NCCCN4CCOCC4)cc(N)c3n2)cc1OC,> 10
4,COc1ccc(-c2cn3cc(C(=O)NCCc4ccc(O)cc4)cc(N)c3n2)cc1OC,> 10
5,c1ccc(-c2cn3cc(-c4ccco4)ccc3n2)cc1,> 10
6,Nc1cccn2cc(-c3ccco3)nc12,> 10
7,COCCOc1ccc(N2CCN(CCNC(=O)c3cc(N)c4nc(-c5ccc(OC)c(OC)c5)cn4c3)CC2)cc1,> 10
8,Nc1cc(-c2ccco2)cn2cc(-c3ccccc3)nc12,0.418
9,COCCOc1ccc(N2CCN(C(=O)c3cc(N)c4nc(-c5ccc(OC)c(OC)c5)cn4c3)CC2)cc1,> 10
10,COc1ccc(-c2cn3cc(-c4ccco4)cc(N)c3n2)cc1OC,0.117
11,COc1ccc(-c2cn3cc(C#Cc4ccccc4)cc(N)c3n2)cc1OC,> 10
12,c1ccc(-c2ccc3nc(-c4ccco4)cn3c2)cc1,> 10
13,Nc1cc(-c2ccco2)cn2cc(-c3ccco3)nc12,> 10
14,c1coc(-c2cn3ccccc3n2)c1,> 10
15,c1coc(-c2ccc3nc(-c4ccco4)cn3c2)c1,1.63
16,Nc1cc(-c2ccccc2)cn2cc(-c3ccco3)nc12,> 10
17,COc1ccc(-c2cn3cc(C(=O)NCCCN4CCN(C)CC4)cc(N)c3n2)cc1OC,> 10
18,COc1ccc(-c2cn3cc(C(=O)NCCCN4CCCCC4)cc(N)c3n2)cc1OC,> 10
19,COc1ccc(-c2cn3cc(CCc4ccccc4)cc(N)c3n2)cc1OC,> 10
